Assay results published in publication PMC8389697, “Development and Characterization of a Novel Peptide—Drug Conjugate with DM1 for Treatment of FGFR2-Positive Tumors” (Biomedicines, 2021).
Square brackets hold non-standard residues; d marks the D form. Ends that are not written are not given here. Hyp = O=C(O)[C@@H]1C[C@@H](O)CN1; Aad = N[C@@H](CCCC(=O)O)C(=O)O; Cit = NC(=O)NCCC[C@H](N)C(=O)O; Nva = CCC[C@H](N)C(=O)O; Ac3c = NC1(C(=O)O)CC1

How the values were obtained:
MCF-7 cells = assay: Clone formation experiment; type: cell-based, human; settings: MCF-7, 200 cells per well, 1 week, crystal violet; performed three times
Protocol: We seeded 200 cells per well in 6-well plates with culture medium. After 12 h, the cells were incubated with different agents for 1 week at 37 °C with 5% CO2. Then, we washed the wells with PBS, fixed the cells with methanol for 10 min and stained them with crystal violet at room temperature. Finally, we washed them with sterile water several times in order to obtain a clean background, and then, the colonies formed were photographed and statistically analyzed.

[1] = once per week; no reference given; cited from earlier work
Text: We investigated the antitumor efficacy of those two PDCs on xenografted mice in vivo.

[2] = biological target: T1, FGFR2 extracellular motif protein (UniProt P21802 22-377); assay: ITC; ITC200, 25 °C, both dissolved in sterile water; 0.1 mM peptide in the sample cell, 0.001 mM FGFR protein in the syringe; 19 injections of 2 µL, 5 min apart; settings: both partners purified
T1 construct: fibroblast growth factor receptor 2 (FGFR2), recombinant, 'extracellular motif protein'; No catalogue number is printed; limits, isoform (IIIb or IIIc) and tag of the bought protein are unknown; also called FGFR2 protein; recombinant proteins of the FGFR2; source: bought: Sino Biological
T1 sequence (P21802 22-377): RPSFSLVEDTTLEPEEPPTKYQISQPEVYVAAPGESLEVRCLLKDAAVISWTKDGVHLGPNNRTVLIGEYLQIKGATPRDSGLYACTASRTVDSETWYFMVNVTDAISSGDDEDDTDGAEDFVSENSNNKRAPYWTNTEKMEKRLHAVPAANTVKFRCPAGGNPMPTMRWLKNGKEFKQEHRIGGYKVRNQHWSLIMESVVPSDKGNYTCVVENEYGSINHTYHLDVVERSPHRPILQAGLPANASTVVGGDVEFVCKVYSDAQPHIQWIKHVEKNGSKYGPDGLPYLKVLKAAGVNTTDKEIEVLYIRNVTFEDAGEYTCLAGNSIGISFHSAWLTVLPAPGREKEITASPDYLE

Molecule	concentration that completely suppresses clone formation (MCF-7 cells) [µg/mL]	tolerated concentrations in mice [1] [mg/kg]	Ka [2] [M⁻¹]	Kd [2] [nM]
COc1cc2cc(c1Cl)N(C)C(=O)C[C@H](OC(=O)[C@H](C)N(C)C(=O)CCS)[C@]1(C)O[C@H]1[C@H](C)[C@@H]1C[C@@](O)(NC(=O)O1)[C@H](OC)/C=C/C=C(\C)C2 [DM1, reference compound]	0.001	1.0 to 1.5		
[Hyp][dL][Cit][dD][dN][dK][Ac3c][Nva][Aad] [LLC2B]			1.04e+09	0.96
